# Results taken from patent publication US20220340665A1, “INHIBITOR AGAINST EXPRESSION OF IMMUNE CHECKPOINT MOLECULE” (RENASCIENCE INC., priority 2019, published 2022).
# Columns and labels:
# [1] = test system: cancer cell line (B16F10); test: PD-L1 expression induced by rPAI-1 in B16F10 with STAT3 inhibitor (Experimental Example 18); type: cell-based, mouse; conditions: simultaneous addition of rPAI-1 and STAT3 inhibitor
# Experimental: In order to clarify the mechanism of induction of PD-L1 expression by PAI-1, rPAI-1 was added to a culture medium of a cancer cell line (B16F10); after culturing for 6 hours, the cells were collected, and the degree of phosphorylation of JAK/STAT molecules was analyzed.
# Further, FIG. 18(B) confirmed that the increase in the PD-L1 expression induced by rPAI-1 was suppressed by simultaneous addition of rPAI-1 and a STAT3 inhibitor (BP-1-102, C188-9).
# human PAI-1 [2] = molecular target: T1, human PAI-1 (Homo sapiens, UniProt P05121); test: PAI-1 inhibitory activity, t-PA with S-2288 chromogenic substrate (Reference Experimental Example 1); conditions: system without compound after 30 minutes = 100%
# T1 sequence (P05121 24-402): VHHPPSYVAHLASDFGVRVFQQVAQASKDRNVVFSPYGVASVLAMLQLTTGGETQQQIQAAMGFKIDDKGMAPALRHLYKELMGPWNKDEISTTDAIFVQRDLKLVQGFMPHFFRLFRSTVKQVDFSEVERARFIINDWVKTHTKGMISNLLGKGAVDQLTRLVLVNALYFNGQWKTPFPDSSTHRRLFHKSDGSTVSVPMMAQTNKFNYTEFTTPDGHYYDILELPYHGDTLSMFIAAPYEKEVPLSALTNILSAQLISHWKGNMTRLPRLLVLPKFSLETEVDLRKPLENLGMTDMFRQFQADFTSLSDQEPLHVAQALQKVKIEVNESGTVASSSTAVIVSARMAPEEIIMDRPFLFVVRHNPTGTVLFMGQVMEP
# Experimental: Subsequently, human-derived tissue plasminogen activator (t-PA) (manufactured by American Diagnostica, Inc. (USA); the same applies hereinafter) adjusted to 0.35 pmol/μL was added thereto, and the mixture was further incubated at 37° C. for 15 minutes.
# human PAI-1 [3] = molecular target: T1, human PAI-1; test: PAI-1 inhibitory activity, t-PA with Spectrozyme t-PA chromogenic substrate (Reference Experimental Example 2); type: biochemical; parameters: purchased Molecular Innovations, Inc. (USA); conditions: head prints no concentration
# Experimental: Subsequently, human-derived tissue plasminogen activator (t-PA) (manufactured by American Diagnostica, Inc. (USA); the same applies hereinafter) adjusted to 0.05 pmol/μL was added thereto, and the mixture was further incubated at 37° C. for 60 minutes. Then, 0.25 mM of Spectrozyme t-PA synthetic substrate (manufactured by American Diagnostica, Inc. (USA); the same applies hereinafter), which is a chromogenic substrate, was added. […]
# Free p-nitroaniline removed from the chromogenic substrate (Spectrozyme t-PA) by t-PA action was measured using a spectrophotometer at an absorbance of 405 nm at 20-minute intervals, for 120 minutes.
# [4] = Tables 5 to 7, first value column
# [5] = Tables 5 to 7, second value column
PAI-1 activity % (human PAI-1 [3]; [4]) [%],PAI-1 activity % (human PAI-1 [3]; [5]) [%],Compound,increase in the PD-L1 expression induced by rPAI-1 [1],PAI-1 activity % (human PAI-1 [2]; compound 20 μm (head)) [%],PAI-1 activity % (human PAI-1 [2]; compound 50 μm (head)) [%]
,,CN(CC(=O)N(Cc1ccc(C2CCCCC2)cc1)c1ccc(C(=O)O)c(O)c1)S(=O)(=O)c1c(F)c(F)c(F)c(F)c1F [BP-1-102],suppressed,,
,,O=C(CCCNC(=O)c1cccc(-c2ccoc2)c1)Nc1ccc(Cl)cc1C(=O)O [Example 1],,95.5,48.9
,,O=C([O-])c1cc(Cl)ccc1NC(=O)C1CCCN(C(=O)c2cccc(-c3ccoc3)c2)C1.[Na+] (stereo not shown) [Example 11],,68.2,26.1
,,O=C(O)c1cc(Cl)ccc1NC(=O)C1CCCN(C(=O)Cc2cccc(-c3ccoc3)c2)C1 (stereo not shown) [Example 12],,57.7,15.7
34.2,92.3,"O=C(/C=C/c1cccc(-c2cccnc2)c1)Nc1ccc(Cl)cc1C(=O)[O-].[Na+] [Example 103, 5-chloro-2-(((2E)-3-[3-(pyridin-3-yl)phenyl]prop-2-enoyl)amino)sodium benzoate]",,,
26.3,88.4,"O=C(Nc1ccc(C23CC4CC(CC(C4)C2)C3)cc1)C(=O)Nc1ccc(Cl)cc1C(=O)[O-].[Na+] [Example 106, [(([4-(adamantan-1-yl)phenyl]amino)(oxo)acetyl)amino]-5-sodium chlorobenzoate]",,,
6.7,100.0,"O=C([O-])c1cc(Cl)ccc1NC(=O)c1cc(-c2ccccc2)nc2ccccc12.[Na+] [Example 107, 5-chloro-2-(((2-phenylquinolin-4-yl)carbonyl)amino)sodium benzoate]",,,
,,COc1ccc(S(=O)(=O)Nc2cc(-c3c(O)ccc4ccccc34)c(O)c3ccccc23)cc1 [Example C188-9],suppressed,,

Compound,PAI-1 activity % (human PAI-1 [3]; [4]) [%],PAI-1 activity % (human PAI-1 [3]; [5]) [%],increase in the PD-L1 expression induced by rPAI-1 [1],PAI-1 activity % (human PAI-1 [2]; compound 20 μm (head)) [%],PAI-1 activity % (human PAI-1 [2]; compound 50 μm (head)) [%]
"O=C(COc1ccc(C2CCCCC2)cc1)Nc1ccc(Cl)cc1C(=O)O [Existing compound 3, 5-chloro-2-(((4-cyclohexylphenoxy)aceytl)amino)benzoic acid, reference compound]",0.3,36.3,,,
